Results from patent publication US20250163048A1 (Tango Therapeutics, Inc., priority 2022, published 2025).
Like-named read-outs stand apart in the source and are kept apart here.

How the values were obtained:
MTAP-deleted cell line = assay: viability assay for the MTAP-deleted cell line; type: cell-based
[1] = system: HAP1 MTAP-intact cell line; assay: SDMA in-cell western assay, HAP1 MTAP-intact
Excerpt: (§1) HAP1 MTAP-intact is a cell line in which endogenous levels of MTAP are expressed, and HAP1 MTAP-deleted is an MTAP-null cell line.

[2] = system: HAP1 MTAP-deleted cell line; assay: SDMA in-cell western assay, HAP1 MTAP-deleted; details: for Hap1 MTAP intact/deleted ratio: IC50 ratio between HAP1 MTAP-intact and HAP1 MTAP-deleted cell line
Excerpt: as §1

[3] = Homo sapiens, HAP1, viability assay
[4] = Homo sapiens, HAP1, read-out: Hap1 MTAP intact IC50, SDMA in-cell western assay, HAP1 MTAP-intact cell line
[5] = Homo sapiens, HAP1, read-out: Hap1 MTAP deleted IC50, SDMA in-cell western assay, HAP1 MTAP-deleted cell line
[6] = Homo sapiens, HAP1, read-out: Hap1 MTAP deleted IC90, SDMA in-cell western assay, HAP1 MTAP-deleted cell line
[7] = Homo sapiens, HAP1, read-out: Hap1 MTAP intact IC50, SDMA in-cell western, HAP1 MTAP-intact cell line
[8] = Homo sapiens, HAP1, read-out: Hap1 MTAP deleted IC50, SDMA in-cell western, HAP1 MTAP-deleted cell line
[9] = Homo sapiens, HAP1, read-out: Hap1 MTAP deleted IC90, SDMA in-cell western, HAP1 MTAP-deleted cell line
[10] = read-out: Hap1 MTAP intact IC50, SDMA in-cell western assay, HAP1 MTAP-intact cell line

C[C@H]1CC[C@H]([C@@H]2CCOC2)N(C(=O)C(=O)Nc2cnc(N)c3cn[nH]c23)C1 (single isomer, unassigned) [Compound 237]
IC50 (MTAP-deleted cell line; [3]): 100 to 1000 nM
IC50 [1, 4]: > 50 nM
IC50 [2, 5]: < 5 nM
IC90 [2, 6]: > 125 nM
Hap1 MTAP intact/deleted ratio ([2]; SDMA in-cell western assay): A (“A” indicates an IC50 ratio greater than or equal to 30 fold)

C[C@H]1CC[C@H](c2ccc3sc([C@H](C)CN(C)C)nc3c2)N(C(=O)C(=O)Nc2cncc3c(N)nccc23)C1 (relative stereo) [Compound 99, N-(8-amino-2,7-naphthyridin-4-yl)-2-((2R,5S)-2-(2-((R)-1-(dimethylamino)propan-2-yl)benzo[d]thiazol-5-yl)-5-methylpiperidin-1-yl)-2-oxoacetamide]
IC50 (MTAP-deleted cell line; [3]): < 100 nM
IC50 [1, 7]: > 50 nM
IC50 [2, 8]: < 5 nM
IC90 [2, 9]: < 75 nM
Hap1 MTAP intact/deleted ratio ([2]; SDMA in-cell western): A (“A” indicates an IC50 ratio greater than or equal to 30 fold)

C[C@H]1CC[C@H](c2ccc3cn(C4CCN(C)CC4)nc3c2)N(C(=O)C(=O)Nc2cncc3cn[nH]c23)C1 [Compound 90, 2-oxo-N-(1H-pyrazolo[4,3-c]pyridin-7-yl)-2-[(2R,5S)-5-methyl-2-[2-(1-methyl-4-piperidyl)indazol-6-yl]-1-piperidyl]acetamide]
IC50 (MTAP-deleted cell line; [3]): < 100 nM
IC50 [1, 7]: 5 to 50 nM
IC50 [2, 8]: < 5 nM
IC90 [2, 9]: < 75 nM
Hap1 MTAP intact/deleted ratio ([2]; SDMA in-cell western): B (“B” indicates an IC50 ratio greater than or equal to 15 fold but lower than 30 fold)

COc1ncc([C@H]2CC[C@H](C)CN2C(=O)C(=O)Nc2cnc(N)c3cn[nH]c23)cc1C (racemic) [Compound 246, N-(4-Amino-1H-pyrazolo[4,3-c]pyridin-7-yl)-2-oxo-2-[rac-(2R,5S)-2-(6-methoxy-5-methyl-3-pyridyl)-5-methyl-1-piperidyl]acetamide]
IC50 (MTAP-deleted cell line; [3]): < 100 nM
IC50 [1, 4]: 5 to 50 nM
IC50 [2, 5]: < 5 nM
IC90 [2, 6]: < 75 nM
Hap1 MTAP intact/deleted ratio ([2]; SDMA in-cell western assay): B (“B” indicates an IC50 ratio greater than or equal to 15 fold but lower than 30 fold)

C[C@H]1CC[C@H](c2ccc3sc(C4CCN(C)CC4)nc3c2)N(C(=O)C(=O)Nc2cnc3c(c2)C(=O)NC3)C1 [Compound 87, 2-oxo-N-(5-oxo-6,7-dihydropyrrolo[3,4-b]pyridin-3-yl)-2-[(2R,5S)-5-methyl-2-[2-(1-methyl-4-piperidyl)-1,3-benzothiazol-5-yl]-1-piperidyl]acetamide]
IC50 (MTAP-deleted cell line; [3]): 100 to 1000 nM
IC50 [1, 7]: > 50 nM
IC50 [2, 8]: 5 to 50 nM
IC90 [2, 9]: > 125 nM
Hap1 MTAP intact/deleted ratio ([2]; SDMA in-cell western): A (“A” indicates an IC50 ratio greater than or equal to 30 fold)

C[C@H]1CC[C@H](c2ccc3sc([C@H]4CCN(C)C[C@H]4C)nc3c2)N(C(=O)C(=O)Nc2ccn3ccnc3c2)C1 (relative stereo) [Compound 58, N-imidazo[1,2-a]pyridin-7-yl-2-oxo-2-[(2R,5S)-5-methyl-2-[2-[rel-(3S,4S)-1,3-dimethyl-4-piperidyl]-1,3-benzothiazol-5-yl]-1-piperidyl]acetamide]
IC50 (MTAP-deleted cell line; [3]): < 100 nM
IC50 [1, 7]: > 50 nM
IC50 [2, 8]: < 5 nM
IC90 [2, 9]: < 75 nM
Hap1 MTAP intact/deleted ratio ([2]; SDMA in-cell western): A (“A” indicates an IC50 ratio greater than or equal to 30 fold)

C[C@H]1CC[C@H](c2ccc3sc(CC4(C)CCN(C)CC4)nc3c2)N(C(=O)C(=O)Nc2cncc3cn[nH]c23)C1 [Compound 142, 2-((2R,5S)-2-(2-((1,4-dimethylpiperidin-4-yl)methyl)benzo[d]thiazol-5-yl)-5-methylpiperidin-1-yl)-2-oxo-N-(1H-pyrazolo[4,3-c]pyridin-7-yl)acetamide]
IC50 (MTAP-deleted cell line; [3]): < 100 nM
IC50 [1, 7]: 5 to 50 nM
IC50 [2, 8]: < 5 nM
IC90 [2, 9]: < 75 nM
Hap1 MTAP intact/deleted ratio ([2]; SDMA in-cell western): B (“B” indicates an IC50 ratio greater than or equal to 15 fold but lower than 30 fold)

CC1OCc2c(NC(=O)C(=O)N3C[C@@H](C)CC[C@@H]3c3ccc4scnc4c3)cnc(N)c21 (single isomer, unassigned) [Compound 288]
IC50 (MTAP-deleted cell line; viability assay, read-out: Hap1 MTAP deleted viability IC50): > 1000 nM
IC50 [1, 10]: > 50 nM
Hap1 MTAP intact/deleted ratio ([2]; SDMA in-cell western assay): B (“B” indicates an IC50 ratio greater than or equal to 15 fold but lower than 30 fold)
IC50 ([2]; read-out: Hap1 MTAP deleted IC50, SDMA in-cell western assay, HAP1 MTAP-deleted cell line): > 50 nM
IC90 ([2]; read-out: Hap1 MTAP deleted IC90, SDMA in-cell western assay, HAP1 MTAP-deleted cell line): > 125 nM

C[C@@H]1CN(C(=O)C(=O)Nc2cnc(N)c3cn[nH]c23)[C@@H](c2ccccc2)CC1(F)F (racemic) [Compound 216, N-(4-Amino-1H-pyrazolo[4,3-c]pyridin-7-yl)-2-oxo-2-[rac-(2R,5R)-4,4-difluoro-5-methyl-2-phenyl-1-piperidyl]acetamide]
IC50 (MTAP-deleted cell line; [3]): < 100 nM
IC50 [1, 4]: 5 to 50 nM
IC50 [2, 5]: < 5 nM
IC90 [2, 6]: < 75 nM
Hap1 MTAP intact/deleted ratio ([2]; SDMA in-cell western assay): C (“C” indicates an IC50 ratio of less than 15 fold)

C[C@@H]1CC[C@H](c2ccnn2C)N(C(=O)C(=O)Nc2cnc(N)c3cn[nH]c23)C1 [Compound 178]
IC50 (MTAP-deleted cell line; [3]): 100 to 1000 nM
IC50 [1, 7]: > 50 nM
IC50 [2, 8]: 5 to 50 nM
IC90 [2, 9]: > 125 nM
Hap1 MTAP intact/deleted ratio ([2]; SDMA in-cell western): C (“C” indicates an IC50 ratio of less than 15 fold)

C[C@H]1CC[C@H](c2ccc(CCN(C)C)cc2)N(C(=O)C(=O)Nc2cnc(N)c3cn[nH]c23)C1 (racemic) [Compound 263, N-(4-Amino-2H-pyrazolo[4,3-c]pyridin-7-yl)-2-oxo-2-[rac-(2R,5S)-2-[4-[2-(dimethylamino)ethyl]phenyl]-5-methyl-1-piperidyl]acetamide]
IC50 (MTAP-deleted cell line; [3]): < 100 nM
IC50 [1, 4]: 5 to 50 nM
IC50 [2, 5]: < 5 nM
IC90 [2, 6]: < 75 nM
Hap1 MTAP intact/deleted ratio ([2]; SDMA in-cell western assay): C (“C” indicates an IC50 ratio of less than 15 fold)

C[C@H]1CC[C@H](c2cccc(OC[C@H](C)N(C)C)c2)N(C(=O)C(=O)Nc2cnc(N)c3cn[nH]c23)C1 [Compound 164, N-(4-amino-1H-pyrazolo[4,3-c]pyridin-7-yl)-2-((2R,5S)-2-(3-((S)-2-(dimethylamino)propoxy)phenyl)-5-methylpiperidin-1-yl)-2-oxoacetamide]
IC50 (MTAP-deleted cell line; [3]): < 100 nM
IC50 [1, 7]: 5 to 50 nM
IC50 [2, 8]: < 5 nM
IC90 [2, 9]: < 75 nM
Hap1 MTAP intact/deleted ratio ([2]; SDMA in-cell western): C (“C” indicates an IC50 ratio of less than 15 fold)

Cc1ncc([C@H]2CC[C@H](C)CN2C(=O)C(=O)Nc2cnc(N)c3cn[nH]c23)cc1Cl [Compound 168]
IC50 (MTAP-deleted cell line; [3]): < 100 nM
IC50 [1, 7]: > 50 nM
IC50 [2, 8]: < 5 nM
IC90 [2, 9]: < 75 nM
Hap1 MTAP intact/deleted ratio ([2]; SDMA in-cell western): C (“C” indicates an IC50 ratio of less than 15 fold)

CN(C)c1cccc(C2CCCCN2C(=O)C(=O)Nc2cnc(N)c3cn[nH]c23)c1 (single isomer, unassigned) [Compound 256]
IC50 (MTAP-deleted cell line; [3]): 100 to 1000 nM
IC50 [1, 10]: > 50 nM
IC50 [2, 5]: 5 to 50 nM
IC90 [2, 6]: > 125 nM
Hap1 MTAP intact/deleted ratio ([2]; SDMA in-cell western assay): A (“A” indicates an IC50 ratio greater than or equal to 30 fold)

CC1OCc2c(NC(=O)C(=O)N3C[C@@H](C)CC[C@@H]3c3ccccc3)cnc(N)c21 (single isomer, unassigned) [Compound 204]
IC50 (MTAP-deleted cell line; [3]): > 1000 nM
IC50 [1, 4]: > 50 nM
IC50 [2, 5]: > 50 nM
IC90 [2, 6]: > 125 nM
Hap1 MTAP intact/deleted ratio ([2]; SDMA in-cell western assay): C (“C” indicates an IC50 ratio of less than 15 fold)

C[C@H]1CC[C@H](c2ccc3sc(CCN(C)C)nc3c2)N(C(=O)C(=O)Nc2ccn3ccnc3c2)C1 (single isomer, unassigned) [Compound 16, 2-(2-(2-(2-(dimethylamino)ethyl)benzo[d]thiazol-5-yl)-5-methylpiperidin-1-yl)-N-(imidazo[1,2-a]pyridin-7-yl)-2-oxoacetamide]
IC50 (MTAP-deleted cell line; [3]): < 100 nM
IC50 [1, 7]: > 50 nM
IC50 [2, 8]: < 5 nM
IC90 [2, 9]: < 75 nM
Hap1 MTAP intact/deleted ratio ([2]; SDMA in-cell western): A (“A” indicates an IC50 ratio greater than or equal to 30 fold)

CCN1CCC(c2nc3cc([C@H]4CC[C@H](C)CN4C(=O)C(=O)Nc4cncc5cn[nH]c45)ccc3s2)CC1 [Compound 37, 2-((2R,5S)-2-(2-(1-ethylpiperidin-4-yl)benzo[d]thiazol-5-yl)-5-methylpiperidin-1-yl)-2-oxo-N-(1H-pyrazolo[4,3-c]pyridin-7-yl)acetamide]
IC50 (MTAP-deleted cell line; [3]): < 100 nM
IC50 [1, 7]: 5 to 50 nM
IC50 [2, 8]: < 5 nM
IC90 [2, 9]: < 75 nM
Hap1 MTAP intact/deleted ratio ([2]; SDMA in-cell western): B (“B” indicates an IC50 ratio greater than or equal to 15 fold but lower than 30 fold)

C[C@H]1CC[C@H](c2ccc(OC3CCN(C)CC3)cc2)N(C(=O)C(=O)Nc2cnc(N)c3cn[nH]c23)C1 [Compound 175, N-(4-amino-1H-pyrazolo[4,3-c]pyridin-7-yl)-2-((2R,5S)-5-methyl-2-(4-((1-methylpiperidin-4-yl)oxy)phenyl)piperidin-1-yl)-2-oxoacetamide]
IC50 (MTAP-deleted cell line; [3]): < 100 nM
IC50 [1, 7]: > 50 nM
IC50 [2, 8]: 5 to 50 nM
IC90 [2, 9]: < 75 nM
Hap1 MTAP intact/deleted ratio ([2]; SDMA in-cell western): B (“B” indicates an IC50 ratio greater than or equal to 15 fold but lower than 30 fold)

C[C@H]1CC[C@H](c2ccc3sc([C@H]4CCN(C)C4)nc3c2)N(C(=O)C(=O)Nc2cncc3cn[nH]c23)C1 (single isomer, unassigned) [Compound 30]
IC50 (MTAP-deleted cell line; [3]): < 100 nM
IC50 [1, 7]: 5 to 50 nM
IC50 [2, 8]: < 5 nM
IC90 [2, 9]: < 75 nM
Hap1 MTAP intact/deleted ratio ([2]; SDMA in-cell western): B (“B” indicates an IC50 ratio greater than or equal to 15 fold but lower than 30 fold)
